Source: PubChem BioAssay (NCI)
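Assay format: 96-well plates, 48-hour exposure. At the TGI there is no net growth.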

How the values were obtained:
Assay in all cases: NCI-60 cell line screen, 48 h
TK-10 renal = tested on: TK-10 renal
HOP-92 NSCLC = tested on: HOP-92 NSCLC
DLD-1 colon = tested on: DLD-1 colon
SW-620 colon = tested on: SW-620 colon
SK-MEL-2 melanoma = tested on: SK-MEL-2 melanoma
MOLT-4 leukemia = tested on: MOLT-4 leukemia
SF-295 CNS = tested on: SF-295 CNS
SN12C renal = tested on: SN12C renal
A498 renal = tested on: A498 renal
HOP-18 NSCLC = tested on: HOP-18 NSCLC
RPMI-8226 leukemia = tested on: RPMI-8226 leukemia
UACC-62 melanoma = tested on: UACC-62 melanoma
DMS 114 small cell lung = tested on: DMS 114 small cell lung
HCT-116 colon = tested on: HCT-116 colon
EKVX NSCLC = tested on: EKVX NSCLC
ACHN renal = tested on: ACHN renal
NCI-H522 lung = tested on: NCI-H522 lung
UO-31 renal = tested on: UO-31 renal
HOP-62 NSCLC = tested on: HOP-62 NSCLC
DMS 273 small cell lung = tested on: DMS 273 small cell lung
SNB-75 CNS = tested on: SNB-75 CNS
SF-268 CNS = tested on: SF-268 CNS
786-0 renal = tested on: 786-0 renal
HCT-15 colon = tested on: HCT-15 colon
UACC-257 melanoma = tested on: UACC-257 melanoma
OVCAR-4 ovarian = tested on: OVCAR-4 ovarian
COLO 205 colon = tested on: COLO 205 colon
K-562 leukemia = tested on: K-562 leukemia
OVCAR-5 ovarian = tested on: OVCAR-5 ovarian
A549 NSCLC = tested on: A549 NSCLC
LOX IMVI melanoma = tested on: LOX IMVI melanoma
HL-60(TB) leukemia = tested on: HL-60(TB) leukemia
U251 CNS = tested on: U251 CNS
KM20L2 colon = tested on: KM20L2 colon
RXF 393 renal = tested on: RXF 393 renal
OVCAR-8 ovarian = tested on: OVCAR-8 ovarian
IGROV1 ovarian = tested on: IGROV1 ovarian
CAKI-1 renal = tested on: CAKI-1 renal
M14 melanoma = tested on: M14 melanoma
SK-OV-3 ovarian = tested on: SK-OV-3 ovarian
HCC-2998 colon = tested on: HCC-2998 colon
SK-MEL-28 melanoma = tested on: SK-MEL-28 melanoma
NCI-H460 lung = tested on: NCI-H460 lung
RXF-631 renal = tested on: RXF-631 renal
NCI-H23 lung = tested on: NCI-H23 lung
SK-MEL-5 melanoma = tested on: SK-MEL-5 melanoma
LXFL 529 NSCLC = tested on: LXFL 529 NSCLC
SR leukemia = tested on: SR leukemia
OVCAR-3 ovarian = tested on: OVCAR-3 ovarian
SNB-19 CNS = tested on: SNB-19 CNS
HT29 colon = tested on: HT29 colon
CCRF-CEM leukemia = tested on: CCRF-CEM leukemia
M19-MEL melanoma = tested on: M19-MEL melanoma
KM12 colon = tested on: KM12 colon
SF-539 CNS = tested on: SF-539 CNS
MALME-3M melanoma = tested on: MALME-3M melanoma
NCI-H226 lung = tested on: NCI-H226 lung
SNB-78 CNS = tested on: SNB-78 CNS

Measured: TGI

CCN(C(=N)C#N)c1ccccc1
> 58.3 µM: DMS 273 small cell lung
27.6 µM: SF-539 CNS
> 69.2 µM: HCT-15 colon
> 49.8 µM: SW-620 colon
> 95.4 µM: M19-MEL melanoma
> 70.2 µM: HL-60(TB) leukemia
> 85.1 µM: CCRF-CEM leukemia
> 60.3 µM: 786-0 renal
> 65.6 µM: DLD-1 colon
> 88.2 µM: DMS 114 small cell lung
not listed: SNB-78 CNS
> 100 µM: all other assays above

COC(=O)C1Cc2c([nH]c3ccccc23)C(C2CCCCC2)N1 (stereo not given)
not listed: A498 renal | RPMI-8226 leukemia | HOP-62 NSCLC | RXF 393 renal | SNB-78 CNS
> 100 µM: all other assays above

O=C1[C@@H]2C(c3cccc([N+](=O)[O-])c3)=NO[C@@H]2C(=O)N1c1ccc(Cc2ccc(N3C(=O)[C@H]4C(c5cccc([N+](=O)[O-])c5)=NO[C@H]4C3=O)cc2)cc1
not listed: SF-295 CNS | A498 renal | EKVX NSCLC | SF-268 CNS | A549 NSCLC | LOX IMVI melanoma | HL-60(TB) leukemia | U251 CNS | OVCAR-8 ovarian | SK-OV-3 ovarian | HCC-2998 colon | NCI-H23 lung | SK-MEL-5 melanoma | SNB-19 CNS | KM12 colon | NCI-H226 lung
> 100 µM: all other assays above

O=C(NO)C(=O)Nc1cc(Cl)ccc1Cl
51 µM: UO-31 renal
49.1 µM: NCI-H522 lung
55.3 µM: IGROV1 ovarian
> 100 µM: all other assays above
